Source: patent US9145392B2, “Imidazole amines as modulators of kinase activity” (Merck Patent GmbH, priority 2011, dated 2015)

How the values were obtained:
P70S6K (T412E mutant) = P70S6K (T412E mutant) (Homo sapiens (Human), UniProt P23443, T412E); test: P70S6K enzyme assay; type: biochemical; conditions: read-out: IC50 p70S6K
In short: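 Phosphorylated product and substrate peptide separated by microfluidic capillary electrophoresis (Caliper LabChip 3000), product peaks resolving before substrate.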

His-AKT (Full Length) = His-AKT (Full Length) (Homo sapiens (Human), UniProt P31749); test: AKT enzyme assay; type: biochemical; conditions: read-out: IC50 AKT
His-AKT (Full Length), sequence (P31749 whole entry): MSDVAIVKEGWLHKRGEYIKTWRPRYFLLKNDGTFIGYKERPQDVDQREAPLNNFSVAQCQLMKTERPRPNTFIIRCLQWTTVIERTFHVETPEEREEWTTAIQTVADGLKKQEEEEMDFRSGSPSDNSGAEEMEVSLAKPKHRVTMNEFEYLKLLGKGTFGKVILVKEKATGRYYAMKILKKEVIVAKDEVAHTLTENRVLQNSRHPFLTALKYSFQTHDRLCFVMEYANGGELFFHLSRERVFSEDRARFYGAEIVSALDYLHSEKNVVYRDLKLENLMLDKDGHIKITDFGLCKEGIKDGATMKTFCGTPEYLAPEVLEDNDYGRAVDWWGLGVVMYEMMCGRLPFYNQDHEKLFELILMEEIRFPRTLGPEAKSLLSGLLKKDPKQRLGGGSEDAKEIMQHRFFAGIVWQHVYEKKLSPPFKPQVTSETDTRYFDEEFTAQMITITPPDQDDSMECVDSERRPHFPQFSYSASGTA

P70S6K (T412E mutant), sequence (P23443 whole entry T412E): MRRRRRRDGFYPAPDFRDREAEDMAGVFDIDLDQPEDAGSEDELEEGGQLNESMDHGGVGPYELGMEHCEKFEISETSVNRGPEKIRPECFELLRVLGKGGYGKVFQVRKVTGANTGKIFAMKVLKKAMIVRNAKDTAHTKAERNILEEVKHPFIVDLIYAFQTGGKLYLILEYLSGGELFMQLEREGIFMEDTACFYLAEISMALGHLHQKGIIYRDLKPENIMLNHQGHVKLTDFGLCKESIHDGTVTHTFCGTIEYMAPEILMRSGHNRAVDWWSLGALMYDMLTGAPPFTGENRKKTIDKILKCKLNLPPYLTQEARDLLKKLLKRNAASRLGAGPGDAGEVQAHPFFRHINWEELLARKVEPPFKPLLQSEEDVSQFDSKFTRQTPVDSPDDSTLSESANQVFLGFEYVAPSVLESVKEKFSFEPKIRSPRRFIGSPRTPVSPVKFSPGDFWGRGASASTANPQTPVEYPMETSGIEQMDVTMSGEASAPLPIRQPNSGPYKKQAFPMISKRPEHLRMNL

Row | SMILES | IC50 (P70S6K (T412E mutant)) | IC50 (His-AKT (Full Length))
1 | CC(C)NCCn1cc(-c2ccc(F)c(C(F)(F)F)c2)nc1C1CCN(c2ncnc(N)c2C#N)CC1 [Compound 369, 4-Amino-6-{4-[4-(4-fluoro-3-trifluoromethyl-phenyl)-1-(2-isopropylamino-ethyl)-1H-imidazol-2-yl]-piperidin-1-yl}-pyrimidine-5-carbonitrile] | 3.6 nM | 5.4 nM
2 | COCC(C)NCCn1cc(-c2ccc(F)c(C(F)(F)F)c2)nc1C1CCN(c2ncnc(N)c2C(N)=O)CC1 (stereo not shown) [Compound 371, 4-Amino-6-(4-{4-(4-fluoro-3-trifluoromethyl-phenyl)-1-[2-(2-methoxy-1-methyl-ethylamino)-ethyl]-1H-imidazol-2-yl}-piperidin-1-yl)-pyrimidine-5-carboxylic acid amide] | 18 nM | 85 nM
3 | CC(C)CNCCn1cc(-c2ccc(F)c(C(F)(F)F)c2)nc1C1CCN(c2ncnc(N)c2C#N)CC1 [Compound 372, 4-Amino-6-{4-[4-(4-fluoro-3-trifluoromethyl-phenyl)-1-(2-isobutylamino-ethyl)-1H-imidazol-2-yl]-piperidin-1-yl}-pyrimidine-5-carbonitrile] | 0.2 nM | 0.7 nM
4 | CC(C)CNCCn1cc(-c2ccc(F)c(C(F)(F)F)c2)nc1C1CCN(c2ncnc(N)c2C(N)=O)CC1 [Compound 373, 4-Amino-6-{4-[4-(4-fluoro-3-trifluoromethyl-phenyl)-1-(2-isobutylamino-ethyl)-1H-imidazol-2-yl]-piperidin-1-yl}-pyrimidine-5-carboxylic acid amide] | 2.9 nM | 12 nM
5 | CNCCn1cc(-c2ccc(F)c(C(F)(F)F)c2)nc1C1CCN(c2ncnc(N)c2C(N)=O)CC1 [Compound 376, 4-Amino-6-{4-[4-(4-fluoro-3-trifluoromethyl-phenyl)-1-(2-methylamino-ethyl)-1H-imidazol-2-yl]-piperidin-1-yl}-pyrimidine-5-carboxylic acid amide] | 3.4 nM | 33 nM
6 | Cc1cc(-c2cn(CCN(C)C(C)C)c(C3CCN(c4ncnc(N)c4C#N)CC3)n2)ccc1F [Compound 379, 4-Amino-6-(4-{4-(4-fluoro-3-methyl-phenyl)-1-[2-(isopropyl-methyl-amino)-ethyl]-1H-imidazol-2-yl}-piperidin-1-yl)-pyrimidine-5-carbonitrile] | 0.8 nM | 2.7 nM
7 | Cc1cc(-c2cn(CCNC(C)C)c(C3CCN(c4ncnc(N)c4C#N)CC3)n2)ccc1F [Compound 380, 4-Amino-6-{4-[4-(4-fluoro-3-methyl-phenyl)-1-(2-isopropylamino-ethyl)-1H-imidazol-2-yl]-piperidin-1-yl}-pyrimidine-5-carbonitrile] | 1.3 nM | 2.9 nM
8 | N#Cc1c(N)ncnc1N1CCC(c2nc(-c3ccc(F)c(C(F)(F)F)c3)cn2CCNC2CCCC2)CC1 [Compound 381, 4-Amino-6-{4-[1-(2-cyclopentylamino-ethyl)-4-(4-fluoro-3-trifluoromethyl-phenyl)-1H-imidazol-2-yl]-piperidin-1-yl}-pyrimidine-5-carbonitrile] | 1.1 nM | 0.8 nM
9 | Cc1cc(-c2cn(CCNCC3CC3)c(C3CCN(c4ncnc(N)c4C(N)=O)CC3)n2)ccc1F [Compound 383, 4-Amino-6-{4-[1-[2-(cyclopropylmethyl-amino)-ethyl]-4-(4-fluoro-3-methyl-phenyl)-1H-imidazol-2-yl]-piperidin-1-yl}-pyrimidine-5-carboxylic acid amide] | 3.3 nM | 8.4 nM
10 | Cc1cc(-c2cn(CCO)c(C3CCN(c4ncnc(N)c4C#N)CC3)n2)ccc1F [Compound 384, 4-Amino-6-{4-[4-(4-fluoro-3-methyl-phenyl)-1-(2-hydroxy-ethyl)-1H-imidazol-2-yl]-piperidin-1-yl}-pyrimidine-5-carbonitrile] | 1.8 nM | 440 nM
11 | Cc1cc(-c2cn(CCN(C)C(C)C)c(C3CCN(c4ncnc(N)c4C(N)=O)CC3)n2)ccc1F [Compound 385, 4-Amino-6-(4-{4-(4-fluoro-3-methyl-phenyl)-1-[2-(isopropyl-methyl-amino)-ethyl]-1H-imidazol-2-yl}-piperidin-1-yl)-pyrimidine-5-carboxylic acid amide] | 6.2 nM | 42 nM
12 | Cc1cc(-c2cn(CCNC(C)C)c(C3CCN(c4ncnc(N)c4C(N)=O)CC3)n2)ccc1F [Compound 386, 4-Amino-6-{4-[4-(4-fluoro-3-methyl-phenyl)-1-(2-isopropylamino-ethyl)-1H-imidazol-2-yl]-piperidin-1-yl}-pyrimidine-5-carboxylic acid amide] | 2.4 nM | 15 nM
13 | NC(=O)c1c(N)ncnc1N1CCC(c2nc(-c3ccc(F)c(C(F)(F)F)c3)cn2CCNC2CCCC2)CC1 [Compound 387, 4-Amino-6-{4-[1-(2-cyclopentylamino-ethyl)-4-(4-fluoro-3-trifluoromethyl-phenyl)-1H-imidazol-2-yl]-piperidin-1-yl}-pyrimidine-5-carboxylic acid amide] | 1.4 nM | 8.4 nM
14 | Cc1cc(-c2cn(CCNCC(C)C)c(C3CCN(c4ncnc(N)c4C#N)CC3)n2)ccc1F [Compound 390, 4-Amino-6-{4-[4-(4-fluoro-3-methyl-phenyl)-1-(2-isobutylamino-ethyl)-1H-imidazol-2-yl]-piperidin-1-yl}-pyrimidine-5-carbonitrile] | 1.9 nM | 1.4 nM
15 | Cc1cc(-c2cn(CCNCC(C)C)c(C3CCN(c4ncnc(N)c4C(N)=O)CC3)n2)ccc1F [Compound 392, 4-Amino-6-{4-[4-(4-fluoro-3-methyl-phenyl)-1-(2-isobutylamino-ethyl)-1H-imidazol-2-yl]-piperidin-1-yl}-pyrimidine-5-carboxylic acid amide] | 5.5 nM | 13 nM

The remaining lines, values ahead:

Row | IC50 (P70S6K (T412E mutant)) | IC50 (His-AKT (Full Length)) | SMILES
16 | 21 nM | 760 nM | CN(CCn1cc(-c2ccc(F)c(C(F)(F)F)c2)nc1C1CCN(c2ncnc(N)c2C(N)=O)CC1)Cc1ccccc1 [Compound 368, 4-Amino-6-{4[1-[2-(benzyl-methyl-amino)-ethyl]-4-(4-fluoro-3-trifluoromethyl-phenyl)-1H-imidazol-2-yl]-piperidin-1-yl}-pyrimidine-5-carboxylic acid amide]
17 | 0.9 nM | 2.5 nM | CC(C)NCCn1cc(-c2ccc(F)c(C(F)(F)F)c2)nc1C1CCN(c2ncnc(N)c2C(N)=O)CC1 [Compound 370, 4-Amino-6-{4-[4-(4-fluoro-3-trifluoromethyl-phenyl)-1-(2-isopropylamino-ethyl)-1H-imidazol-2-yl]-piperidin-1-yl}-pyrimidine-5-carboxylic acid amide]
18 | 0.4 nM | 1.5 nM | CNCCn1cc(-c2ccc(F)c(C(F)(F)F)c2)nc1C1CCN(c2ncnc(N)c2C#N)CC1 [Compound 374, 4-Amino-6-{4-[4-(4-fluoro-3-trifluoromethyl-phenyl)-1-(2-methylamino-ethyl)-1H-imidazol-2-yl]-piperidin-1-yl}-pyrimidine-5-carbonitrile]
19 | 1.3 nM | 1.9 nM | CC(C)(C)NCCn1cc(-c2ccc(F)c(C(F)(F)F)c2)nc1C1CCN(c2ncnc(N)c2C#N)CC1 [Compound 375, 4-Amino-6-{4-[1-(2-tert-butylamino-ethyl)-4-(4-fluoro-3-trifluoromethyl-phenyl)-1H-imidazol-2-yl]-piperidin-1-yl}-pyrimidine-5-carbonitrile]
20 | 2 nM | 9.7 nM | CC(C)(C)NCCn1cc(-c2ccc(F)c(C(F)(F)F)c2)nc1C1CCN(c2ncnc(N)c2C(N)=O)CC1 [Compound 377, 4-Amino-6-{4-[1-(2-tert-butylamino-ethyl)-4-(4-fluoro-3-trifluoromethyl-phenyl)-1H-imidazol-2-yl]-piperidin-1-yl}-pyrimidine-5-carboxylic acid amide]
21 | 0.8 nM | 2.3 nM | Cc1cc(-c2cn(CCNCC3CC3)c(C3CCN(c4ncnc(N)c4C#N)CC3)n2)ccc1F [Compound 378, 4-Amino-6-{4-[1-[2-(cyclopropylmethyl-amino)-ethyl]-4-(4-fluoro-3-methyl-phenyl)-1H-imidazol-2-yl]-piperidin-1-yl}-pyrimidine-5-carbonitrile]
22 | 1.7 nM | 4.3 nM | CCC(C)(C)NCCn1cc(-c2ccc(F)c(C(F)(F)F)c2)nc1C1CCN(c2ncnc(N)c2C#N)CC1 [Compound 382, 4-Amino-6-{4-[1-[2-(1,1-dimethyl-propylamino)-ethyl]-4-(4-fluoro-3-trifluoromethyl-phenyl)-1H-imidazol-2-yl]-piperidin-1-yl}-pyrimidine-5-carbonitrile]
23 | 2 nM | 13 nM | CCC(C)(C)NCCn1cc(-c2ccc(F)c(C(F)(F)F)c2)nc1C1CCN(c2ncnc(N)c2C(N)=O)CC1 [Compound 388, 4-Amino-6-{4-[1-[2-(1,1-dimethyl-propylamino)-ethyl]-4-(4-fluoro-3-trifluoromethyl-phenyl)-1H-imidazol-2-yl]-piperidin-1-yl}-pyrimidine-5-carboxylic acid amide]
24 | 0.9 nM | 0.7 nM | Cc1cc(-c2cn(CCNC3CCCC3)c(C3CCN(c4ncnc(N)c4C#N)CC3)n2)ccc1F [Compound 389, 4-Amino-6-{4-[1-(2-cyclopentylamino-ethyl)-4-(4-fluoro-3-methyl-phenyl)-1H-imidazol-2-yl]-piperidin-1-yl}-pyrimidine-5-carbonitrile]
25 | 4 nM | 5.6 nM | Cc1cc(-c2cn(CCNC3CCCC3)c(C3CCN(c4ncnc(N)c4C(N)=O)CC3)n2)ccc1F [Compound 391, 4-Amino-6-{4-[1-(2-cyclopentylamino-ethyl)-4-(4-fluoro-3-methyl-phenyl)-1H-imidazol-2-yl]-piperidin-1-yl}-pyrimidine-5-carboxylic acid amide]
26 | 2.8 nM | 47 nM | Cc1cc(-c2cn(CCO)c(C3CCN(c4ncnc(N)c4C(N)=O)CC3)n2)ccc1F [Compound 393, 4-Amino-6-{4-[4-(4-fluoro-3-methyl-phenyl)-1-(2-hydroxy-ethyl)-1H-imidazol-2-yl]-piperidin-1-yl}-pyrimidine-5-carboxylic acid amide]
